Literature values in patent US6472403B2, “αV integrin receptor antagonists” (Merck & Co., Inc., priority 2000, dated 2002).

Test system: postmenopausal osteoporotic women
Details: median of 22 months of treatment

In the case of `CC[C@H](C)[C@H](NC(=O)[C@H](CCC(=O)O)NC(=O)[C@H](CO)NC(=O)[C@@H](NC(=O)[C@@H](N)CO)C(C)C)C(=O)N[C@@H](CCC(N)=O)C(=O)N[C@@H](CC(C)C)C(=O)N[C@@H](CCSC)C(=O)N[C@@H](Cc1cnc[nH]1)C(=O)N[C@@H](CC(N)=O)C(=O)N[C@@H](CC(C)C)C(=O)NCC(=O)N[C@@H](CCCCN)C(=O)N[C@@H](Cc1cnc[nH]1)C(=O)N[C@@H](CC(C)C)C(=O)N[C@@H](CC(N)=O)C(=O)N[C@@H](CO)C(=O)N[C@@H](CCSC)C(=O)N[C@@H](CCC(=O)O)C(=O)N[C@@H](CCCN=C(N)N)C(=O)N[C@H](C(=O)N[C@@H](CCC(=O)O)C(=O)N[C@@H](Cc1c[nH]c2ccccc12)C(=O)N[C@@H](CC(C)C)C(=O)N[C@@H](CCCN=C(N)N)C(=O)N[C@@H](CCCCN)C(=O)N[C@@H](CCCCN)C(=O)N[C@@H](CC(C)C)C(=O)N[C@@H](CCC(N)=O)C(=O)N[C@@H](CC(=O)O)C(=O)N[C@H](C(=O)N[C@@H](Cc1cnc[nH]1)C(=O)N[C@@H](CC(N)=O)C(=O)N[C@@H](Cc1ccccc1)C(=O)O)C(C)C)C(C)C` [hPTH(1-34)], the “reduction in nonvertebral fractures” value is given as 54% and the “reduction in spine fractures” value is given as no less than 65%.
